In PMC3911951, “Crystal Structure of Arginine Methyltransferase 6 from Trypanosoma brucei” (PLoS ONE, 2014):

Experiments:
TbPRMT6 [1] = target: T1, TbPRMT6 (Trypanosoma brucei, UniProt Q57U70); assay: X-ray crystal structure, […] A; settings: co-crystallised with three-fold molar excess SAH; 100 mM citrate pH 5.5, 20% PEG3000, 293 K; SAM-binding pocket
T1 construct: gene Tb05.6E7.1000; full-length, E. coli BL21(DE3), modified pET28a, N-terminal 6xHis cut by TEV protease; 41 kDa monomer, homodimer; residues 1-24 and 228-229 disordered in crystal
T1 sequence (Q57U70 1-368): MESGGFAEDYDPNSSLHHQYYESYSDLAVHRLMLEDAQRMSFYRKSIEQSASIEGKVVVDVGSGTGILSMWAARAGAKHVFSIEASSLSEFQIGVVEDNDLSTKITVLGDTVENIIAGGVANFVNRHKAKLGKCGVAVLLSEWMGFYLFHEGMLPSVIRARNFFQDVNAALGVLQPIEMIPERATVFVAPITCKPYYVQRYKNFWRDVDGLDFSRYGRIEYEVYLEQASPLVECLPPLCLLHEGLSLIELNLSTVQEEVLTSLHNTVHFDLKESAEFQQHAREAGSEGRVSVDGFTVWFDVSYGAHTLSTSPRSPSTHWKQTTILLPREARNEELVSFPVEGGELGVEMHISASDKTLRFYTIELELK

TbPRMT6 [2] = target: T1, TbPRMT6; assay: in vitro methylation of Trx-H4tail, western blot for asymmetric dimethyl H4R3; type: biochemical; settings: 40 uM SAM, 1 ug Trx-H4tail (bovine histone H4 residues) as co-substrate; 30 mM Tris pH 8.0, 100 mM NaCl, 1 mM EDTA, 5 mM DTT, 37 C, 12 h

Structure (SMILES)	X-ray crystal structure, 2.35 A (TbPRMT6 [1])	in vitro methylation of Trx-H4tail, western blot for asymmetric dimethyl H4R3 (TbPRMT6 [2])
Nc1ncnc2c1ncn2[C@@H]1O[C@H](CSCC[C@H](N)C(=O)O)[C@@H](O)[C@H]1O [SAH, S-adenosyl-homocysteine]	Structures of apo-TbPRMT6 and in complex with SAH (SAH-TbPRMT6) were resolved and refined	–
C[S+](CC[C@H](N)C(=O)O)C[C@H]1O[C@@H](n2cnc3c(N)ncnc32)[C@H](O)[C@@H]1O (stereo partly drawn) [SAM, S-adenosyl-L-methionine]	–	our result also showed that TbPRMT6 can methylate bovine histone H4R3
